Assays:
ZR-75-1 cells = test: Inhibition of cell proliferation (GI50) and cell death (LC50), ZR-75-1; assay type: cell-based; conditions: ZR-75-1, 48 h; read-out: GI50 (dose for 50% inhibition of cell proliferation)
Procedure: (§1) T47D, ZR-75-1, PC-3, human prostate cancer cell line DU-145, human non-small cell lung cancer cell line A-549, human small cell lung cancer cell line SHP-77, HL-60 and MRC-5 cells were grown and harvested as in Example 90. […] The samples were mixed by agitation and incubated at 37° C. for 2-4 h in a 5% CO2-95% humidity incubator. […] This determines the possible background absorbance of the test compounds. No absorbance for gambogic acid or its analogs or derivatives was found at 490 nm. After the 2-4 h incubation, the samples were read for absorbance as above (ATest).
(§2) Baseline for GI50 (dose for 50% inhibition of cell proliferation) and LC50 (dose for 50% cell death) of initial cell numbers was determined by adding an aliquot of 90 μl of cells or 90 μl of media, respectively, to wells of a 96-well microtiter plate containing 10 μl of a 10% DMSO in RPMI-1640 media solution. […] The samples were mixed by agitation and incubated at 37° C. for 2-4 h in a 5% CO2-95% humidity incubator. Absorbance was read as above, (AT=0) defining absorbance for initial cell number used as baseline in GI50 determinations and (Amin) defining absorbance for media alone used as baseline in LC50 determinations.
(§3) GI50 (dose for 50% inhibition of cell proliferation)
(§4) LC50 (dose for 50% cell death)
(§5) 50=100×[(ATest−Amin)/(AT=0−Amin)]

[1] = system: human prostate cancer cell line DU-145; test: Inhibition of cell proliferation (GI50) and cell death (LC50), DU-145; assay type: cell-based; conditions: DU-145, 48 h; read-out: GI50 (dose for 50% inhibition of cell proliferation)
Procedure: as §1, §2, §3, §4, §5

HL-60 cells = test: Inhibition of cell proliferation (GI50) and cell death (LC50), HL-60; assay type: cell-based; conditions: HL-60, 48 h
Procedure: as §1, §2, §3, §4, §5

[2] = system: caspase activity, T47D cells; test: Caspase induction and its inhibition by caspase inhibitor (Example 97), T47D; assay type: cell-based, human; set-up: key to Inhibition of caspase activity by Inhibitor: The caspase activity detected was inhibited by the caspase inhibitor (+)
Procedure: (§6) T47D, ZR-75, PC3, SHP-77 and A-549 cells were maintained and harvested as described in Example 90. Cells were added to 96-well plates as described in Example 90. The cells were treated with 10 μM gambogic acid, in the presence and in the absence of 10 μM caspase inhibitor cbz-Val-Asp-fmk (Cytovia, Inc.; WO99/18781). The plate was incubated up to 24 h at 37° C in a 5% CO2-95% humidity incubator. Caspase activity was determined by addition of a fluorogenic substrate as described in Example 90.
(§7) Gambogic acid induced caspase activity in a ratio of greater than 2.5 (+) above untreated cell levels in all the tested cancer cell lines (Table IV). The caspase activity detected was inhibited by the caspase inhibitor (+), confirming that the fluorescent signal was due to caspase activity.

[3] = system: caspase activity, A-549 cells; test: Caspase induction and its inhibition by caspase inhibitor (Example 97), A-549; assay type: cell-based, human; set-up: key to Inhibition of caspase activity by Inhibitor: The caspase activity detected was inhibited by the caspase inhibitor (+)
Procedure: as §6, §7

Jurkat T leukemia cells = test: Apoptotic morphology in Jurkat cells; assay type: cell-based
Procedure: Jurkat T leukemia cells were grown in RPMI 1640 media (Life Technologies, Inc.)+10% FCS (Sigma Chemical Company) in a 5% CO2-95% humidity incubator at 37° C., and maintained at a cell density between 4 and 8×10^5 cells/ml. Cells were harvested at 200× g and resuspended at 1-2×10^6 cells/ml into RPMI 1640 media+10% FCS, and 3 ml of the cells was dispensed in each of three wells of a 6-well plate. One of the wells was treated with 10 μM caspase inhibitor cbz-Val-Asp-fink (Cytovia, Inc.; WO99/18781) and the plate was incubated at 37° C. in a 5% CO2-95% humidity incubator for 1 h prior to addition of gambogic acid. The wells with and without the caspase inhibitor were treated with 10 μM gambogic acid. The third well was treated with solvent (control cells). The plate was incubated at 37° C. in a 5% CO2-95% humidity incubator.
At 30 min. after addition of gambogic acid an aliquot of cells from each well was taken into the capillary slides and observed under a phase-contrast microscope.

[4] = system: caspase activity, T47D cells and MRC-5 cells; test: Dose response of caspase activation in T47D versus normal fibroblasts MRC-5; assay type: cell-based, human; conditions: 2 h incubation, two-fold serial dilutions (FIG. 4)
Procedure: T47D cells and MRC-5 cells were maintained and harvested as described in Example 90. An aliquot of 45 μl of cells was added to each well of a 96-well microtiter plate. To determine the dose response of gambogic acid for inducing caspase activity, 5 μl of 20 μM gambogic acid in RPMI media was added to wells in triplicates. Two-fold serial dilutions were made for the lower concentrations. After incubation for 2 h, the samples were removed from the 5% CO2-95% humidity incubator and caspase activity was determined by addition of a fluorogenic substrate as described in Example 90.

[5] = system: poly(ADP)ribose polymerase (PARP) cleavage, Jurkat cells; test: PARP cleavage western blot, Jurkat cells; assay type: cell-based, human; conditions: 2.5 μM, 2 h (FIG. 5A)
Procedure: (§8) Cleavage of the enzyme poly(ADP)ribose polymerase (PARP) by caspase-3 and related proteases is considered to be one of the molecular hallmarks of caspase-mediated apoptosis. Therefore, the ability of gambogic acid to induce PARP cleavage in four different human tumor cell lines (Jurkat cells, HL-60 cells, T47D cells and PC3 cells) was determined.
(§9) Cells were cultured in complete growth medium containing 10% FBS and treated with gambogic acid at concentrations of 2.5 μM or 5 μM for 2 to 4 h. Control cultures were treated with a drug vehicle (DMSO), or the well-characterized apoptosis inducer, staurosporine. At the end of the apoptosis induction period, the cells were harvested, washed once with PBS, quick-frozen on dry ice, and stored at −80° C. The cells were then lysed in a standard immunoblotting lysis buffer and samples of the lysates were electrophoresed on 4% to 20% gradient polyacrylamide gels. The proteins in the gels were then transferred to PVDF membranes and probed with a commercially-available rabbit polyclonal antibody to PARP.

[6] = system: poly(ADP)ribose polymerase (PARP) cleavage, HL-60 cells; test: PARP cleavage western blot, HL-60 cells; assay type: cell-based, human; conditions: 2.5 μM, 2 h (FIG. 5B)
Procedure: as §8, §9

KB-V1 cell line = conditions: reported by Lin et al., Magn. Reson. Chem. 31:340-347 (1993); cited from earlier work

## CC(C)=CCC[C@]1(C)C=Cc2c(O)c3c(c(CC=C(C)C)c2O1)O[C@]12C(=C[C@@H]4C[C@H]1C(C)(C)O[C@@]2(C/C=C(/C)C(=O)O)C4=O)C3=O [Example 1, Gambogic Acid]
ZR-75-1 cells
  GI50: 400 nM
[1]
  GI50: 500 nM
HL-60 cells; read-out: GI50 (dose for 50% inhibition of cell proliferation)
  GI50: 500 nM
HL-60 cells; read-out: LC50 (dose for 50% cell death)
  CC50: 700 nM
[2]; 10 μM gambogic acid with 10 μM caspase inhibitor cbz-Val-Asp-fmk
  Inhibition of caspase activity by Inhibitor: +
[2]; 10 μM gambogic acid, up to 24 h
  Caspase activity: + (Gambogic acid induced caspase activity in a ratio of greater than 2.5 (+) above untreated cell levels)
[3]; A-549, 10 μM gambogic acid with 10 μM caspase inhibitor cbz-Val-Asp-fmk
  Inhibition of caspase activity by Inhibitor: +
[3]; A-549, 10 μM gambogic acid, up to 24 h
  Caspase activity: + (Gambogic acid induced caspase activity in a ratio of greater than 2.5 (+) above untreated cell levels)
Jurkat T leukemia cells; 10 μM gambogic acid, 30 min, with 10 μM caspase inhibitor cbz-Val-Asp-fink (FIG. 3C)
  Cell morphology of Jurkat cells in presence of caspase inhibitor: prevented the morphological changes
Jurkat T leukemia cells; 10 μM, 30 min (FIG. 3B)
  Cell morphology of Jurkat cells: blebbing and cellular fragmentation
[4]
  Sensitivity of T47D to induction of caspase activity relative to MRC-5 (dose response): more sensitive to induction of caspase activity than a normal fibroblast cell line MRC-5
[5]
  PARP cleavage: almost complete PARP cleavage
[6]
  PARP cleavage: almost complete PARP cleavage
KB-V1 cell line
  Cytotoxicity against KB-V1 cell line: cytotoxic

From patent US6613762B2, “Gambogic acid, analogs and derivatives as activators of caspases and inducers of apoptosis” (Cytovia, Inc., priority 1999, dated 2003)
